Earlier results as cited in US5717095A, “Nucleotide analogs” (Gilead Sciences, Inc., priority 1996, dated 1998).

System: intraperitoneal P388 leukemia
Conditions: murine; cited from earlier work

In the case of `Nc1ncnc2c1ncn2CC(CO)OCP(=O)(O)O` (stereo not shown) [HPMPA], the antitumor activity is given as “active”.
